Where two headings read alike, the source gives them in different places.
Legend:
S. aureus 08143 (MSSA) = assay: Broth microdilution MIC; format: cell-based, Staphylococcus aureus; settings: for MIC: S. aureus 08143 (MSSA)
Procedure: (§1) The protocol employed was inspired by Abedini et al. with some modifications. Products were solubilized in DMSO and serially diluted two-fold in MH medium. A bacterial suspension at 10^5 CFU/mL was added to obtain a final volume of 200 µL. Final phenolic product concentrations in wells ranged from 625 to 2.4 µg/mL (exception for lupulone for which dilutions were continued until 0.3 µg/mL). […] Plates were incubated overnight with stirring (60 rpm) at 37 °C.

S. aureus T26A4 (MSSA) = assay: Broth microdilution MIC; format: cell-based, Staphylococcus aureus; settings: for MIC: S. aureus T26A4 (MSSA)
Procedure: as §1

S. aureus T25.10 (MRSA) = assay: Broth microdilution MIC; format: cell-based, Staphylococcus aureus; settings: for MIC: S. aureus T25.10 (MRSA)
Procedure: as §1

S. aureus T28.1 (MRSA) [1] = assay: Broth microdilution MIC; format: cell-based, Staphylococcus aureus
Procedure: as §1
For the following experiments, the MRSA strain T28.1, isolated from a pathological sample of osteitis, was used. It was previously characterized by DNA biochips, which allowed highlighting some β-lactamases and the SCC-mec genes confirming the methicillin resistance. Moreover, genes for enzymes and proteins involved in the capsule biosynthesis (capH5, capJ5 and capK5) and several intracellular adhesion proteins implicated in biofilm formation (icaA, icaC and icaD) were present.

Candida albicans 13203 = assay: First screening, agar dilution MIC; format: cell-based
[2] = test system: Candida albicans ATCC 10231; assay: First screening, agar dilution MIC; format: cell-based
[3] = test system: MG-63 cells (osteosarcoma); assay: cells; format: cell-based, human; settings: Homo sapiens, MG-63
Procedure: (§2) Several human cell lines were used for the cytotoxic bioassays: non-cancer lung fibroblasts (WI-38), hepatocellular carcinoma (Hep-G2), osteosarcoma (MG-63) and the mouse monocyte macrophage J774. Cells were seeded into wells of a 96-well microplate in a Gibco™ Dulbecco’s modified eagles medium (DMEM), except for MG-63 which were cultivated in a minimum essential medium (MEM) (ThermoFisher Scientific, Illkirch-Graffenstaden, France). Both media were enriched with 10% FBS (ThermoFisher Scientific, France) and some antibiotics (mixture penicillin/streptomycin 100 UI/mL, Sigma Aldrich). After one or two days at 37 °C (5% of CO2), wells were emptied by suction. Cells were then treated with hops compounds (xanthohumol, desmethylxanthohumol, humulone, lupulone) in DMSO at 0.2% in the culture medium, to obtain a final volume of 100 µL in wells (negative control: 0.2% DMSO). Camptothecin was used as a positive control. After 48 to 72 h exposure, culture medium was replaced by 10% of Alamar blue or 3-(4,5-dimethylthiazol-2-yl)-2,5-diphenyltetrazolium bromide (MTT) in the medium (ThermoFisher Scientific®, Illkirch, France) and plates were incubated the time necessary to the reaction. Results were measured respectively by fluorescence (excitation 530 nm and emission 590 nm) or by optical density at 550 nm. The IC50 of each product was determined using GraphPad Prism (version 5.01).

[4] = test system: J774 cells (monocyte macrophage); assay: Cytotoxicity / antiproliferative effect; format: cell-based, mouse
Procedure: as §2

[5] = test system: WI-38 cells (non-cancer lung fibroblasts); assay: Cytotoxicity / antiproliferative effect; format: cell-based, human
Procedure: as §2

[6] = test system: Hep-G2 cells (hepatocellular carcinoma); assay: Cytotoxicity / antiproliferative effect; format: cell-based, human; settings: Homo sapiens
Procedure: as §2

S. aureus T28.1 (MRSA) [7] = assay: Synergies by checkerboard method; format: cell-based, Staphylococcus aureus
Procedure: Checkerboard method was used to assess the potential co-action of xanthohumol, desmethylxanthohumol and lupulone between them or with some antibiotics. Antibiotics were previously selected on the basis of a first screening using E-tests (BioMérieux®, France). […] Each test was performed on a 96-well microplate using an 8-by-8 well configuration. […] Wells were filled with 100 µL of MH medium, 10 µL of each compound (DMSO for products and water for antibiotics) and 80 µL of a 10^5 CFU/mL bacterial suspension with appropriate solvent controls. […] The MIC of each product alone was checked at each test. Microplates were incubated overnight at 60 rpm and 37 °C.
After visual analysis, the combination with the highest activity was determined by the calculation of the fractional inhibitory concentration (FIC) index, interpreted as synergistic (FIC < 0.5), additive (0.5 ≤ FIC ≤ 1), indifferent (1 < FIC ≤ 4) or antagonist (FIC > 4).
FIC index=MIC A with B/MIC A alone+ MIC B with A/MIC B alone

[8] = test system: Leishmania mexicana mexicana (Lmm); assay: Antiparasitic activity, broth microdilution; format: cell-based
Procedure: (§3) Tbb were cultivated in HMI9 medium containing 10% heat-inactivated foetal bovine serum (FBS) (Sigma-Aldrich), […] L-cysteine and […] beta-mercaptoethanol at 37 °C (CO2 5%). Lmm (MHOM/BZ/84/BEL46) were cultivated in SDM-79 medium (Gibco) supplemented with 15% heat-inactivated FBS (Sigma-Aldrich) and 5 mg/L hemin at 28 °C (CO2 5%). Antiparasitic bioassays were performed as described by Bero et al.. Suramin (SUR) and pentamidine (PEN) were used as positive controls respectively. The hops compounds (xanthohumol, desmethylxanthohumol, humulone, lupulone) concentration that inhibits 50% of the cell viability (IC50) was determined using GraphPad Prism, version 5.01 (GraphPad Software, San Diego, CA, USA).

[9] = test system: Trypanosoma brucei brucei (Tbb); assay: Antiparasitic activity, broth microdilution; format: cell-based
Procedure: as §3

[10] = Staphylococcus aureus, read-out: MIC
[11] = Staphylococcus aureus, value in parentheses, read-out: MIC
[12] = Staphylococcus aureus, S. aureus T28.1 (MRSA), read-out: MIC
[13] = Staphylococcus aureus, S. aureus T28.1 (MRSA), value in parentheses, read-out: MIC
[14] = value in parentheses, read-out: IC50 (converted)
[15] = value in parentheses, read-out: MIC

Molecule: CC(C)=CCC1=C(O)C(O)(CC=C(C)C)C(=O)C(C(=O)C(C)C)=C1O (stereo in doubt) [Cohumulone, cohumulone]
- MIC (S. aureus 08143 (MSSA); [10]): 313 µg/mL
- MIC (S. aureus 08143 (MSSA); [11]): 899 µM
- MIC (S. aureus T26A4 (MSSA); [10]): 313 µg/mL
- MIC (S. aureus T26A4 (MSSA); [11]): 899 µM
- MIC (S. aureus T25.10 (MRSA); [10]): 313 µg/mL
- MIC (S. aureus T25.10 (MRSA); [11]): 899 µM
- MIC (S. aureus T28.1 (MRSA) [1]; [12]): 156 µg/mL
- MIC (S. aureus T28.1 (MRSA) [1]; [13]): 448 µM

Molecule: C[C@@H]1[C@H](O)[C@@H](C)/C=C/C=C/C=C/C=C/C=C/C=C/C=C/[C@H](O[C@@H]2O[C@H](C)[C@@H](O)[C@H](N)[C@@H]2O)C[C@@H]2O[C@](O)(C[C@@H](O)C[C@@H](O)[C@H](O)CC[C@@H](O)C[C@@H](O)CC(=O)O[C@H]1C)C[C@H](O)[C@H]2C(=O)O [AMB, Amphotericin B]
- Susceptibility to AMB (Candida albicans 13203): S (Amphotericin B (AMB) S ≤ 1)
- Susceptibility to AMB [2]: S (Amphotericin B (AMB) S ≤ 1)

Molecule: CC[C@@]1(O)C(=O)OCc2c1cc1n(c2=O)Cc2cc3ccccc3nc2-1 [CAMP, camptothecin]
- IC50 ([3]; read-out: IC50 ± SD): 4.4 ± 1.5 µg/mL
- IC50 [3, 14]: 12.6 µM
- IC50 ([4]; Mus musculus, read-out: IC50 ± SD): 0.01 µg/mL
- IC50 ([4]; Mus musculus, value in parentheses, read-out: IC50 (converted)): 0.03 µM
- IC50 ([5]; Homo sapiens, read-out: IC50 ± SD): 0.06 µg/mL
- IC50 ([5]; Homo sapiens, value in parentheses, read-out: IC50 (converted)): 0.17 µM
- IC50 ([6]; HepG2, read-out: IC50 ± SD): 0.4 ± 0.2 µg/mL
- IC50 ([6]; HepG2, value in parentheses, read-out: IC50 (converted)): 1.15 µM

Molecule: CC(C)=CCC1=C(O)C(CC=C(C)C)(CC=C(C)C)C(=O)C(C(=O)C(C)C)=C1O [Colupulone, colupulone]
- MIC (S. aureus 08143 (MSSA); [10]): 78 µg/mL
- MIC (S. aureus 08143 (MSSA); [11]): 195 µM
- MIC (S. aureus T26A4 (MSSA); [10]): 39 µg/mL
- MIC (S. aureus T26A4 (MSSA); [11]): 97.5 µM
- MIC (S. aureus T25.10 (MRSA); [10]): 78 µg/mL
- MIC (S. aureus T25.10 (MRSA); [11]): 195 µM
- MIC (S. aureus T28.1 (MRSA) [1]; [12]): 39 µg/mL
- MIC (S. aureus T28.1 (MRSA) [1]; [13]): 97.5 µM

Molecule: OC(Cn1cncn1)(Cn1cncn1)c1ccc(F)cc1F [FLC, Fluconazole]
- Susceptibility to FLC (Candida albicans 13203): R (R > 4)
- Susceptibility to FLC [2]: S (Fluconazole (FLC) S ≤ 2)

Molecule: COc1cc(O)c(CC=C(C)C)c2c1C(=O)CC(c1ccc(O)cc1)O2 (stereo not shown) [Isoxanthohumol, isoxanthohumol]
- MIC (S. aureus T28.1 (MRSA) [1]; Staphylococcus aureus, strain MRSA T28.1, read-out: MIC): 39 µg/mL

Molecule: Cc1onc(-c2ccccc2)c1C(=O)N[C@@H]1C(=O)N2[C@@H]1SC(C)(C)[C@@H]2C(=O)O [OXA, oxacillin]
- MIC for oxacillin in combination (S. aureus T28.1 (MRSA) [7]; in the presence of lupulone): < 2 µg/mL
- MIC for oxacillin in combination (S. aureus T28.1 (MRSA) [7]; in the presence of xanthohumol): < 2 µg/mL
- Susceptibility to OXA (S. aureus 08143 (MSSA); S. aureus 08143): S (S ≤ 2 µg/mL)
- Susceptibility to OXA (S. aureus T26A4 (MSSA); S. aureus T26A4): S (S ≤ 2 µg/mL)
- Susceptibility to OXA (S. aureus T25.10 (MRSA); S. aureus T25.10): R (R ≥ 4 µg/mL)
- Susceptibility to OXA (S. aureus T28.1 (MRSA) [1]; S. aureus T28.1): R (R ≥ 4 µg/mL)

Molecule: N=C(N)c1ccc(OCCCCCOc2ccc(C(=N)N)cc2)cc1 [PEN, pentamidine]
- IC50 ([8]; Leishmania mexicana, read-out: IC50 (converted)): 0.07 µg/mL
- IC50 ([8]; Leishmania mexicana, value in parentheses, read-out: IC50 (converted)): 0.21 µM

Molecule: Cc1ccc(C(=O)Nc2ccc(S(=O)(=O)O)c3cc(S(=O)(=O)O)cc(S(=O)(=O)O)c23)cc1NC(=O)c1cccc(NC(=O)Nc2cccc(C(=O)Nc3cc(C(=O)Nc4ccc(S(=O)(=O)O)c5cc(S(=O)(=O)O)cc(S(=O)(=O)O)c45)ccc3C)c2)c1 [SUR, suramin]
- IC50 ([9]; Trypanosoma brucei, read-out: IC50 (converted)): 0.05 µg/mL
- IC50 ([9]; Trypanosoma brucei, value in parentheses, read-out: IC50 (converted)): 0.038 µM

Molecule: C[C@@H](c1ncncc1F)[C@](O)(Cn1cncn1)c1ccc(F)cc1F [VRC, Voriconazole]
- Susceptibility to VRC (Candida albicans 13203): R (R > 0.12)
- Susceptibility to VRC [2]: S (Voriconazole (VRC) S ≤ 0.12)

Molecule: CO[C@H]1/C=C/O[C@@]2(C)Oc3c(C)c(O)c4c(O)c(c(/C=N/N5CCN(C)CC5)c(O)c4c3C2=O)NC(=O)/C(C)=C\C=C\[C@H](C)[C@H](O)[C@@H](C)[C@@H](O)[C@@H](C)[C@H](OC(C)=O)[C@@H]1C [rifampicin]
- times more active when combined (S. aureus T28.1 (MRSA) [7]; rifampicin combined with xanthohumol): 8 times

Molecule: humulone
- IC50 ± SD [4]: 11.5 ± 0.3 µg/mL
- IC50 [4, 14]: 31.7 µM
- IC50 ± SD [5]: 10.5 ± 2.3 µg/mL
- IC50 [5, 14]: 29 µM
- MIC (S. aureus 08143 (MSSA)): 156 µg/mL
- MIC (S. aureus 08143 (MSSA); [15]): 430.9 µM
- MIC (S. aureus T26A4 (MSSA)): 156 µg/mL
- MIC (S. aureus T26A4 (MSSA); [15]): 430.9 µM
- MIC (S. aureus T25.10 (MRSA)): 156 µg/mL
- MIC (S. aureus T25.10 (MRSA); [15]): 430.9 µM
- IC50 [9]: 10.9 ± 0.8 µg/mL
- IC50 [9, 14]: 30.1 µM
- IC50 [8]: 28.8 ± 1.5 µg/mL
- IC50 [8, 14]: 77.9 µM
- MIC (S. aureus T28.1 (MRSA) [1]; S. aureus T28.1 (MRSA)): 78 µg/mL
- MIC (S. aureus T28.1 (MRSA) [1]; S. aureus T28.1 (MRSA), value in parentheses, read-out: MIC): 215.5 µM

Source: publication PMC6472001, “Phenolic Compounds from Humulus lupulus as Natural Antimicrobial Products: New Weapons in the Fight against Methicillin Resistant Staphylococcus aureus, Leishmania mexicana and Trypanosoma brucei Strains” (Molecules, 2019)
